# Key:
# [1] = system: PD-L1 suppressed human T cells; test: Activation of T-Cell Suppressed by PD-L1 (co-culture with PD-L1 transfected Hep3B cells, IFN-γ readout); assay type: cell-based; settings: dose-dependent; Keytruda as positive control
# Excerpt: To measure the cellular activity of the compound, a protocol of Activation of T-Cell Suppressed by PD-L1 is used. In this protocol, human Hep3B cells are stably transfected with human PD-L1. The human T cells containing PD-1 are inactivated by co-culturing with these PD-L1 transfected cells. Then anti-PD-1 antibody Keytruda® (pembrolizumab) is selected as the reference to profile the compound for its activation of PD-L1 suppressed human T-cells. […] Keytruda is used as a positive control.
# [2] = system: B16F10 tumor cells (melanoma); test: Anti-tumor efficacy in the B16F10 model in C57BL/6 mice; assay type: in vivo; settings: PO, BID
# Description: Materials required for the experiment: Antibody: mouse PD-1 antibody, Product specifications: 7.09 mg/mL (50 mg/mL), Lot No.: 695318A1 purchased from BioXcell, storage at 4° C. Experimental animals 60 C57BL/6 mice, female, 6-8 weeks old, 17-21 g, purchased from Shanghai Lingchang Biotechnology Co. Ltd. Formulation materials: castor oil (Cremophor RH40), CAS No.: 61788-85-0, Lot No.: 29761847G0, purchased from Shanghai Xietai Chemical Co. Ltd.; β-cyclodextrin (SBE-β-CD), CAS No.: 128446-35-5, Lot No.: 20180110, purchased from Shanghai Shaoyuan Chemical Co. Ltd.; DMEM culture medium, Art. No.: 11995-065, Lot No.: 2025378, purchased from Gibco Co. Ltd.; PBS, Art. […]
# Cell preparation and implantation: The B16-F10 tumor cells (ATCC CRL-6475™) are maintained in vitro as a monolayer culture in DMEM medium supplemented with 10% heat inactivated fetal bovine serum at 37° C. in an atmosphere of 5% CO2 in air. […] The cells growing to a confluency around 70%-80% are harvested and counted for tumor inoculation. […]
# Procedure: The mice in the vehicle group are weighed and recorded in the electronic balance according to their numbers. […]
# The mice in the antibody (10 mg/kg) group are weighed and recorded in the electronic balance according to their numbers. […]
# The mice in the compound (30 mg/kg) group are weighed and recorded in the electronic balance according to their numbers. […]
# 4T1 tumor cells [3] = test: Anti-tumor efficacy of Compound 1 and Opdivo in the 4T1 humanized mouse model; assay type: in vivo; settings: for TGI at day 13: p<0.0001
# Description: (§1) 4T1 tumor cells (ATCC, CRL-2539™) are maintained in vitro as a monolayer culture in RPMI 1640 medium supplemented with 10% heat inactivated fetal bovine serum at 37° C. in an atmosphere of 5% CO2 in air. The tumor cells are routinely subcultured three times weekly by trypsin-EDTA treatment. Each mouse is inoculated subcutaneously at the fourth mammary pad with 1×10^5 in 0.05 mL base medium for tumor development.
# (§2) Compound 1 plus Opdivo (nivolumab): 40 BALB/c mice are inoculated subcutaneously at the fourth mammary pad with 4T1 cells for tumor development. On the six days of post inoculation, the mice are assigned into 4 groups using stratified randomization with 10 mice in each group based upon their tumor volume. The treatments are started from the day of randomization, and the groups receive the following treatments:
# Group 1: Vehicle control; Group 2: Opdivio, 10 mg/kg, i.p., BIW; Group 3: Compound 1, 60 mg/kg, p.o., BID and Group 4: Compound 1, 60 mg/kg, p.o., BID+Opdivio, 10 mg/kg, i.p., BIW respectively.
# (§3) The tumor sizes are measured three times per week during the treatment.
# The tumor growth inhibition effect of the combination of Compound 1 and Opdivo is examined. The tumor inhibition rate is calculated as:
# TGI (%)=(1−(the volume of the tumor on the day of administration−the volume of the tumor on the first day of administration (treatment group))/(the volume of the tumor on the day of administration−the volume of the tumor on the first day (vehicle group)))×100%.
# 4T1 tumor cells [4] = test: Anti-tumor efficacy of Compound 1 and Keytruda in the 4T1 humanized mouse model; assay type: in vivo
# Description: as §1
# as §2, with “1 plus Keytruda (pembrolizumab): 40 BALB/c” for “1 plus Opdivo (nivolumab): 40 BALB/c”, “the mice were assigned into” for “the mice are assigned into”, “The treatments were started from” for “The treatments are started from”
# Group 1: Vehicle control; Group 2: Keytruda, 10 mg/kg, i.p., BIW; Group 3: Compound 1, 60 mg/kg, p.o., BID, and Group 4: Compound 1, 60 mg/kg, p.o., BID+Keytruda, 10 mg/kg, i.p., BIW respectively.
# as §3
# The tumor growth inhibition effect of the combination of Compound 1 and Keytruda is examined. The tumor inhibition rate is calculated as:
# TGI (%)=(1−(the volume of the tumor on the day of administration−the volume of the tumor on the first day of administration (treatment group))/(the volume of the tumor on the day of administration−the volume of the tumor on the first day (vehicle group))×100%.
molecule,measurement,setting,value
Cc1c(/C=C/c2cc(CN[C@@](C)(CO)C(=O)O)ccc2C(F)(F)F)cccc1-c1ccccc1 [Compound 1],"activation of PD-L1 suppressed human T cells, indicated by increase of cytokine IFN-γ",[1],effectively restores the activation of the PD-L1 suppressed human T cells
same,growth of subcutaneous transplanted melanoma cell line in mice,[2]; C57BL/6 mice,significantly inhibits the growth
same,tolerability in C57BL/6 mice,[2]; up to 120 mg/kg,well tolerated in C57BL/6 mice without obvious adverse reactions
same,TGI at day 13,"4T1 tumor cells [3]; 60 mg/kg, PO, BID",21.70%
same,TGI at day 10,"4T1 tumor cells [4]; 60 mg/kg, PO, BID, p<0.0001",22.36%
nivolumab [Opdivo],TGI at day 13,"4T1 tumor cells [3]; 10 mg/kg, IP, BIW",21.88%
same,time after dosing within which mice are found dead,"4T1 tumor cells [3]; after the 5th dose of Opdivo at day 14, 10 mg/kg i.p. BIW, mice",≤ 1 h
pembrolizumab [Keytruda],TGI at day 10,"4T1 tumor cells [4]; 10 mg/kg, IP, BIW, p>0.5",9.12%
same,time after dosing within which mice are found dead,"4T1 tumor cells [4]; after the 4th dose of Keytruda at day 10, 10 mg/kg i.p. BIW, mice",≤ 1 h

# Reference: US20230046904A1, “COMBINATION OF SMALL MOLECULE INHIBITOR OF THE PD-1/PD-L1 INTERACTION AND ANTI-PD-1 ANTIBODY FOR TREATING CANCER” (GUANGZHOU MAXINOVEL PHARMACEUTICALS CO., LTD., priority 2019, published 2023)
